Test results: US10287313B2, “RNA monomers containing 0-acetal levulinyl ester groups and their use in RNA microarrays” (THE ROYAL INSTITUTION FOR THE ADVANCEMENT OF …, priority 2008, dated 2019)
In the oligonucleotide strings, read from the 5' end, every base follows the letter of its sugar. An asterisk marks phosphorothioate; unmarked linkages are phosphodiester. Other units and linkages are bracketed, terminal groups are in braces. A string of capitals states the bases alone. d = 2'-deoxy (DNA); r = 2'-OH (RNA)

Experiments:
[1] = Tm of 21-nt RNAs synthesized from various chemistries; format: physicochemical; details: base sequence r(GCUUGAAGUCUUUAAUUAA)-d(TT)
luciferase mRNA = assay: RNAi assay that targets luciferase mRNA (luciferase gene knockdown by siRNA duplexes); format: cell-based; details: antisense strand annealed to common sense strand synthesized via 2′-TBDMS chemistry; light units relative to Renilla control; compared with TBDMS, TOM and ACE derived duplexes
Source text: The fully deprotected antisense strands were synthesized by TBDMS, TOM, ACE and ALE chemistries, whereas the complementary sense strand of the siRNA duplex was synthesized by TBDMS chemistry.
As a final check, we evaluated the activity of all RNAs synthesized in an RNAi assay that targets luciferase mRNA (Dowler, T. et al. Nucleic Acids Res 2006, 34, 1669-75). Each of the antisense strands prepared by the various chemistries were allowed to anneal to a common sense strand synthesized via 2′-TBDMS chemistry.

Row | Substance | Tm [1] | gene silencing activity (luciferase gene knockdown) (luciferase mRNA)
1 | r(GCUUGAAGUCUUUAAUUAA)-d(TT) [ACE] (antisense rGrCrUrUrGrArArGrUrCrUrUrUrArArUrUrArAdTdT) [21-nt antisense siRNA strand from 2′-O-ACE chemistry, crude RNA purchased from Dharmacon] | 59.5 °C | 
2 | r(GCUUGAAGUCUUUAAUUAA)-d(TT) [ALE] (antisense rGrCrUrUrGrArArGrUrCrUrUrUrArArUrUrArAdTdT) [21-nt antisense siRNA strand synthesized from 2′-O-ALE chemistry] | 59.4 °C | same gene silencing activity
3 | r(GCUUGAAGUCUUUAAUUAA)-d(TT) [TBDMS] (RNA, 3' dTdT, backbone not given here) [21-nt antisense siRNA strand synthesized from 2′-O-TBDMS chemistry] | 59.8 °C | 
4 | r(GCUUGAAGUCUUUAAUUAA)-d(TT) [TOM] (antisense rGrCrUrUrGrArArGrUrCrUrUrUrArArUrUrArAdTdT) [21-nt antisense siRNA strand synthesized from 2′-O-TOM chemistry] | 60.1 °C | 
